Measurements as given in publication PMC5762315, “Inhibition of polo-like kinase 4 (PLK4): a new therapeutic option for rhabdoid tumors and pediatric medulloblastoma” (Oncotarget, 2017).
Where “and” joins values, the source holds several entries; their conditions need not be identical. Equal values may be shown once.

What was measured:
Test in all cases: biochemical
Type in all cases: biochemical
various kinases [1] = target: T1, various kinases (Homo sapiens, UniProt Q15139); settings: kinase PRKD1 (PKC mu); ZLYTE
T1 sequence (Q15139 1-912): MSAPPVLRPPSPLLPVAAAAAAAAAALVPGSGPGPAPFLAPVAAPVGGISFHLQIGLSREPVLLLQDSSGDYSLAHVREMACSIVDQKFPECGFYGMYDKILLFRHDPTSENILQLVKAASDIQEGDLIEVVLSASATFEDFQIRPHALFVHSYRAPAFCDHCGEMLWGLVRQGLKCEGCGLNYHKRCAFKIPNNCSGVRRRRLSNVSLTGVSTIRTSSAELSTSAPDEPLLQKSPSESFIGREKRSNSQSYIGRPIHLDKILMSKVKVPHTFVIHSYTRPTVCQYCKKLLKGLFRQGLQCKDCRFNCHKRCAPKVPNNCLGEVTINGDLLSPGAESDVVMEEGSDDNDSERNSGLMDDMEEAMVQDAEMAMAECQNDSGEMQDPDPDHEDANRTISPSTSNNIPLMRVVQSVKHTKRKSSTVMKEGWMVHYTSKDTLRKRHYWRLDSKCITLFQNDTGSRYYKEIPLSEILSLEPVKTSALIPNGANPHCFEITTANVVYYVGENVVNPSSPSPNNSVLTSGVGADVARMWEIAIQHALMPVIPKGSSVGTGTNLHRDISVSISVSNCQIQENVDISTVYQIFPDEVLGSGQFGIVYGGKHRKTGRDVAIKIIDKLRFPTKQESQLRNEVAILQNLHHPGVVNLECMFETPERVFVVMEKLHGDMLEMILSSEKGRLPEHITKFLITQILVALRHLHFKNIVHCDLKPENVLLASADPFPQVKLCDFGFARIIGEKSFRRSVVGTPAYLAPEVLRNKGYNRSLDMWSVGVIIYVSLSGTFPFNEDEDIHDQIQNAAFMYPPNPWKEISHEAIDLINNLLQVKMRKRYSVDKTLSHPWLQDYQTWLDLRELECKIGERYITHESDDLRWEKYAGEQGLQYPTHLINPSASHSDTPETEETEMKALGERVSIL

various kinases [2] = target: various kinases (Homo sapiens, UniProt Q9H2X6); settings: HIPK2
various kinases [3] = target: various kinases (Homo sapiens, UniProt Q15349); settings: kinase RPS6KA2 (RSK3); ZLYTE
various kinases [4] = target: various kinases (Homo sapiens, UniProt Q13464); settings: kinase ROCK1; ZLYTE
various kinases [5] = target: various kinases (Homo sapiens, UniProt Q9NR20); settings: DYRK4
various kinases [6] = target: T2, various kinases (Homo sapiens, UniProt P41743); settings: kinase PRKCI (PKC iota); ZLYTE
T2 sequence (P41743 1-596): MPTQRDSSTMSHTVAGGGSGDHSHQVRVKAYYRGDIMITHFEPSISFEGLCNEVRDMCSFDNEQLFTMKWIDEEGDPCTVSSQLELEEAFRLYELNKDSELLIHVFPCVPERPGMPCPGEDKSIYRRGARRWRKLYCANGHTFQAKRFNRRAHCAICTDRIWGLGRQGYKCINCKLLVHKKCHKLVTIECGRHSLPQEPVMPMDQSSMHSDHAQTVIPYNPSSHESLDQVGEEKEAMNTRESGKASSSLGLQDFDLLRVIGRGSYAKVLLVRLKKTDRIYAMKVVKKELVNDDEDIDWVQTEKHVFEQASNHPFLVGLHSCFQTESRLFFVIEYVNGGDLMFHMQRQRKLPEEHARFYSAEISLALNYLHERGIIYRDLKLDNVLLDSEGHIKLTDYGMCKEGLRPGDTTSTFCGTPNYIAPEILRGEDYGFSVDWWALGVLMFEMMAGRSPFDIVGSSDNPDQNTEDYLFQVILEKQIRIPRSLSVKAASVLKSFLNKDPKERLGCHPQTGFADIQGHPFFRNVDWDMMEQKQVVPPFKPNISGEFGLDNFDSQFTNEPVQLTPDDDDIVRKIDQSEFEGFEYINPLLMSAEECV

various kinases [7] = target: various kinases (Homo sapiens, UniProt Q00537); settings: CDK17/cyclin Y
various kinases [8] = target: various kinases (Homo sapiens, UniProt P53778); settings: MAPK12 (p38 gamma)
various kinases [9] = target: various kinases (Homo sapiens, UniProt Q00535)
various kinases [10] = target: various kinases (Homo sapiens, UniProt Q12866); settings: MERTK (cMER)
various kinases [11] = target: various kinases (Homo sapiens, UniProt P36507); settings: MAP2K2 (MEK2)
various kinases [12] = target: various kinases (Homo sapiens, UniProt P17612); settings: kinase PRKACA (PKA); ZLYTE
various kinases [13] = target: various kinases (Homo sapiens, UniProt O60674, V617F); settings: JAK2 JH1 JH2 V617F
various kinases [14] = target: various kinases (Homo sapiens, UniProt P15056); settings: BRAF
various kinases [15] = target: various kinases (Homo sapiens, UniProt Q9P0L2); settings: MARK1 (MARK)
various kinases [16] = target: various kinases (Homo sapiens, UniProt P04049, Y340D/Y341D); settings: kinase RAF1 (cRAF) Y340D Y341D; ZLYTE
various kinases [17] = target: various kinases (Homo sapiens, UniProt P36888, D835Y); settings: FLT3 D835Y
various kinases [18] = target: various kinases (Homo sapiens, UniProt P07332); settings: FES (FPS)
various kinases [19] = target: various kinases (Homo sapiens, UniProt P42345); settings: FRAP1 (mTOR)
Wherever % Inhibition Average is given: test concentration or dose not given here.
Wherever % Inhibition Duplicate #1 is given: test concentration or dose not given here.
Wherever % Inhibition Duplicate #2 is given: test concentration or dose not given here.

various kinases (Homo sapiens, UniProt P04049, Y340D/Y341D), sequence (P04049 whole entry Y340D/Y341D): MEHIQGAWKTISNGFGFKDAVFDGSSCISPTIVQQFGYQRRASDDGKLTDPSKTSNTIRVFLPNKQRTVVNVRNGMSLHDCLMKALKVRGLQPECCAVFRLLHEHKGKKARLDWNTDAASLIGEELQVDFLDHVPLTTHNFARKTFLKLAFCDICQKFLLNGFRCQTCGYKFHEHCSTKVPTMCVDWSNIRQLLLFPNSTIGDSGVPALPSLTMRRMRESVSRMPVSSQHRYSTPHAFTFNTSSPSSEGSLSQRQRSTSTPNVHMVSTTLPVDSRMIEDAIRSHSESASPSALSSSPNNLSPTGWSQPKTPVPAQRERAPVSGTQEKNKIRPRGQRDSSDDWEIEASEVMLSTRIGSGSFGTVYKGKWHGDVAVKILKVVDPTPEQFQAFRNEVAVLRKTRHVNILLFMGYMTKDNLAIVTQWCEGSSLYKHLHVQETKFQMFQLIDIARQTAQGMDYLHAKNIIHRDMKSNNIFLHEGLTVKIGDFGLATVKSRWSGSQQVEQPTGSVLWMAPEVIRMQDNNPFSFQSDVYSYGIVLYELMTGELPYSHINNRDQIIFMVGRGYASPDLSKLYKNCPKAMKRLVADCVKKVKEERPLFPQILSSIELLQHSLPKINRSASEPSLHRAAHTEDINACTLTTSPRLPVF
various kinases (Homo sapiens, UniProt Q00535), sequence (Q00535 whole entry): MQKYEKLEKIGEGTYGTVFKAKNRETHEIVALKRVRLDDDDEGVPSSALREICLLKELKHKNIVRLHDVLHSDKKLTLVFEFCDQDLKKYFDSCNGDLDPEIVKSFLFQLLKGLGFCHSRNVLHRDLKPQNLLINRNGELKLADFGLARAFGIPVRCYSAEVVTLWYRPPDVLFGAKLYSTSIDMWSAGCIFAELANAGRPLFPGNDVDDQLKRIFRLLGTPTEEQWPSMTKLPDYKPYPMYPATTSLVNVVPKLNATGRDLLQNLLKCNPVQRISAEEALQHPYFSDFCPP
various kinases (Homo sapiens, UniProt Q15349), sequence (Q15349 whole entry): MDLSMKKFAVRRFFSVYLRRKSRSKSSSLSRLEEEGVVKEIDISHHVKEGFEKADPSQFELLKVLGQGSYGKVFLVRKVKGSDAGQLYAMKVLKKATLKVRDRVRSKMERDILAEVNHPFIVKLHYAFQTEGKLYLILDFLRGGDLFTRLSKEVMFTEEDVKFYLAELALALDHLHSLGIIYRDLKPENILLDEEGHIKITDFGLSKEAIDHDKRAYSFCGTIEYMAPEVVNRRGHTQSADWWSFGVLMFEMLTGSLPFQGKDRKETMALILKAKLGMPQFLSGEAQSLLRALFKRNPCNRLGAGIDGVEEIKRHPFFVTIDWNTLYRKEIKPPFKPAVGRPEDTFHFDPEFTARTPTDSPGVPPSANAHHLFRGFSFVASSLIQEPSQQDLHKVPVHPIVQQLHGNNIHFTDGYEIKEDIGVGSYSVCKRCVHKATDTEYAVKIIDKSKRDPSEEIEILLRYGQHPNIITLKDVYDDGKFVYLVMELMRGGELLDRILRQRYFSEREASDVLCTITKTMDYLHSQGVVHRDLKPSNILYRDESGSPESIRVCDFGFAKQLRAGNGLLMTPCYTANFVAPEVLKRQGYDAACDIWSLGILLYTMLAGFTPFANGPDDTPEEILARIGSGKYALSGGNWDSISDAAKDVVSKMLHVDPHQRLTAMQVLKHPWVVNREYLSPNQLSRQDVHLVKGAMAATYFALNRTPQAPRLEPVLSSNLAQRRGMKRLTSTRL
various kinases (Homo sapiens, UniProt Q13464), sequence (Q13464 whole entry): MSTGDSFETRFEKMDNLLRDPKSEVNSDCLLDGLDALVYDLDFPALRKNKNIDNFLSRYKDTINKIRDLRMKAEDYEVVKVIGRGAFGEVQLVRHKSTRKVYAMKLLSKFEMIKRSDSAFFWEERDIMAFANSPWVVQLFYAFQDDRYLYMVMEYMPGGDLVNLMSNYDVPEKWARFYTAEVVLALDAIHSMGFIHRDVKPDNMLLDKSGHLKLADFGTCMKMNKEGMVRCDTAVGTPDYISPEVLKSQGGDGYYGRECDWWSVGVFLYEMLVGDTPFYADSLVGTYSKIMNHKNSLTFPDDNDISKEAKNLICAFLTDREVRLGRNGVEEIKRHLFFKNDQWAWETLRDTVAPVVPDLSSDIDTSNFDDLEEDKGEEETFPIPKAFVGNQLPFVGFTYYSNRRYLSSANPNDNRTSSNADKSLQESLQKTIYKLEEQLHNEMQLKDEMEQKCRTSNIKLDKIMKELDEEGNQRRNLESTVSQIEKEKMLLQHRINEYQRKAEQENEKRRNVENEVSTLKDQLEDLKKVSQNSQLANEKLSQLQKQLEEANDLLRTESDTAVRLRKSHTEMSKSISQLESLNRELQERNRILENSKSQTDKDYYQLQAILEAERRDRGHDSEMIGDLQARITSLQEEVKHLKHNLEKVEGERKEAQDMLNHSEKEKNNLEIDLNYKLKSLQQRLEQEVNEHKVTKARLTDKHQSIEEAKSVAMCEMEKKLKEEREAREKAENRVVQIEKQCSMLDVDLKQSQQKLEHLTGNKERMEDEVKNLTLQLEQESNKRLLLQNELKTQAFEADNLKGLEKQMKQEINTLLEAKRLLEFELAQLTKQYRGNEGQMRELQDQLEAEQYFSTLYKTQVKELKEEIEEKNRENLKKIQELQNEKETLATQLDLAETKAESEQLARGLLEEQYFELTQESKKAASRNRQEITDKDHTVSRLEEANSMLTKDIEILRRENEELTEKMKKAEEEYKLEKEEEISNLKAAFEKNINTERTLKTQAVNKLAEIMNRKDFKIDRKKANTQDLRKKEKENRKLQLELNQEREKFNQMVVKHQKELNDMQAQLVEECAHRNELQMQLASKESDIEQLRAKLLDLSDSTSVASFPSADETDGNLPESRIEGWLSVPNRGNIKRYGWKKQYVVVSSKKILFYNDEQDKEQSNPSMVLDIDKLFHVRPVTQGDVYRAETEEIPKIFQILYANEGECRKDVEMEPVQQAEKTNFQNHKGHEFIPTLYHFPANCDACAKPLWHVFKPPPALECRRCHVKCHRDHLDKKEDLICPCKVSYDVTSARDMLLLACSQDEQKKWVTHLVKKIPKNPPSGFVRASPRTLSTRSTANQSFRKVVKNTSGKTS
various kinases (Homo sapiens, UniProt P15056), sequence (P15056 whole entry): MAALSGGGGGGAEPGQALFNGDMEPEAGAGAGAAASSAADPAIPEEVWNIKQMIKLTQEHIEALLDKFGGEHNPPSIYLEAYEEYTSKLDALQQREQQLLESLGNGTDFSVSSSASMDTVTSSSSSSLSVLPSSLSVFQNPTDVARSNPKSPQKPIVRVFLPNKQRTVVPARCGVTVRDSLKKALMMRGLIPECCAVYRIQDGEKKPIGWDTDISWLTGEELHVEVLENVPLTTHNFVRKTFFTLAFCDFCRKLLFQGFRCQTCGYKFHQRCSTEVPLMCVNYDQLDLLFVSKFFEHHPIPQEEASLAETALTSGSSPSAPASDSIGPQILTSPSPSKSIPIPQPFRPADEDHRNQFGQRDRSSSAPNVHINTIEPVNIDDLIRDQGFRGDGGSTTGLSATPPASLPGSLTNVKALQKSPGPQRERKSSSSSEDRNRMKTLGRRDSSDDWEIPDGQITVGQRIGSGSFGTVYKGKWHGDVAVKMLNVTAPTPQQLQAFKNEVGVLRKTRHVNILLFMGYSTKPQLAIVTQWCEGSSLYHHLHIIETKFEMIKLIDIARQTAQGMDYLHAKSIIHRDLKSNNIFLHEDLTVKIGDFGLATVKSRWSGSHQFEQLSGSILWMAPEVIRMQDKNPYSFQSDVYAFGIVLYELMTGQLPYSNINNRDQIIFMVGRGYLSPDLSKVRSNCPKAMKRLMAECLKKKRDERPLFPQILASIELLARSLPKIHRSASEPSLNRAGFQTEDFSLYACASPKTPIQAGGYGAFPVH
various kinases (Homo sapiens, UniProt Q9P0L2), sequence (Q9P0L2 whole entry): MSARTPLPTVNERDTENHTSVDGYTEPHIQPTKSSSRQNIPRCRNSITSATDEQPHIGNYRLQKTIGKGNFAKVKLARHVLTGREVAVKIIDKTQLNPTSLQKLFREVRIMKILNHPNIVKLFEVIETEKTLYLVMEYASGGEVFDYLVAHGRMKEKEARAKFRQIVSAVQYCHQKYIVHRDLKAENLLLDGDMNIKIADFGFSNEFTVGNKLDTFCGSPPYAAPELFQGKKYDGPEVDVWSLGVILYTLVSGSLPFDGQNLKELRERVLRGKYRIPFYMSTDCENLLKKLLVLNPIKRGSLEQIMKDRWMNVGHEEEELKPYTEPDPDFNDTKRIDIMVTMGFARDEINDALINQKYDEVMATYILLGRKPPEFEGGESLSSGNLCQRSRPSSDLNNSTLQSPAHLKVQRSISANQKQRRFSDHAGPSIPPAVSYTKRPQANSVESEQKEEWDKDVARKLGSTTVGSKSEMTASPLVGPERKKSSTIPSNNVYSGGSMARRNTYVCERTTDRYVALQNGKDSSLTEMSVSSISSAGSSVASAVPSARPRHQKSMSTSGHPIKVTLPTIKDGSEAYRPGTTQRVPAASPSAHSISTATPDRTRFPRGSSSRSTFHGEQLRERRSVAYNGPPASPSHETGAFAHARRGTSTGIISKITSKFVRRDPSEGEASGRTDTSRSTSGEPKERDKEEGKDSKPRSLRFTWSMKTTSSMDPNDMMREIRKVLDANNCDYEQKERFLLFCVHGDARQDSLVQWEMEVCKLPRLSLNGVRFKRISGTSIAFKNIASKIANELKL
various kinases (Homo sapiens, UniProt P53778), sequence (P53778 whole entry): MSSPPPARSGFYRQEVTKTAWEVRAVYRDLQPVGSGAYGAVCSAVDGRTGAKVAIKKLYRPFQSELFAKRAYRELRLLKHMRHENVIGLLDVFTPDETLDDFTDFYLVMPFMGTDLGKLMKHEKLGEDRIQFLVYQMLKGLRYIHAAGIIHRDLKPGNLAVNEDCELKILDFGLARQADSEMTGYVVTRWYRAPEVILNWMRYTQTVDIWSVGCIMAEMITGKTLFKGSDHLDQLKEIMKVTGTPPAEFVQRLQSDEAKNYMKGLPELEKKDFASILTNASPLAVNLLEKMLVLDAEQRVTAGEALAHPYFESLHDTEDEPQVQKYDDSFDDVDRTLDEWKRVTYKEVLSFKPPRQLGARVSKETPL

COc1ccc2c(c1)[C@]1(C[C@H]1c1ccc3c(/C=C/c4ccc(CN5C[C@@H](C)O[C@@H](C)C5)cc4)n[nH]c3c1)C(=O)N2 [CFI-400945]
% Inhibition Average (various kinases [1]): 0%
% Inhibition Duplicate #1 (various kinases [1]): -1%
% Inhibition Duplicate #2 (various kinases [1]): 1%
% Inhibition (various kinases [2]): 2% and 0%
% Inhibition Average (various kinases [3]): 12%
% Inhibition Duplicate #1 (various kinases [3]): 11%
% Inhibition Duplicate #2 (various kinases [3]): 13%
% Inhibition Average (various kinases [4]): 0%
% Inhibition Duplicate #1 (various kinases [4]): 0%
% Inhibition Duplicate #2 (various kinases [4]): 0%
% Inhibition (various kinases [5]): 3% and 2%
% Inhibition Average (various kinases [6]): 6%
% Inhibition Duplicate #1 (various kinases [6]): 0%
% Inhibition Duplicate #2 (various kinases [6]): 11%
% Inhibition (various kinases [7]): -1% and 8%
% Inhibition (various kinases [8]): -3% and -2%
% Inhibition (various kinases [9]; CDK5/p25): 6% and 8%
% Inhibition (various kinases [9]; CDK5/p35): 2% and 3%
% Inhibition (various kinases [10]): -2% and 1%
% Inhibition (various kinases [11]): 7%
% Inhibition Average (various kinases [12]): 3%
% Inhibition Duplicate #1 (various kinases [12]): 4%
% Inhibition Duplicate #2 (various kinases [12]): 2%
% Inhibition (various kinases [13]): 8% and 9%
% Inhibition (various kinases [14]): -1% and 2%
% Inhibition (various kinases [15]): 25% and 24%
% Inhibition Average (various kinases [16]): 12%
% Inhibition Duplicate #1 (various kinases [16]): 10%
% Inhibition Duplicate #2 (various kinases [16]): 14%
% Inhibition (various kinases [17]): 27% and 29%
% Inhibition (various kinases [18]): 13% and 10%
% Inhibition (various kinases [19]): 2% and 5%
